Experimental data: patent US8598122B2, “Antagonistic peptides for frizzled-1 and frizzled-2” (Universiteit Maastricht, priority 2009, dated 2013)
“Also recorded” adds a separate entry of the source. Where a SMILES comes first, the peptide text is derived from it.

Tests used:
frizzled-1 (rFzd-1) = biological target: T1, frizzled-1 (rFzd-1) (Rattus norvegicus, UniProt Q08463); experiment: Activity assay: Wnt3a-induced luciferase (superTOPflash) in HEK cells transfected with frizzled-1; assay type: cell-based; conditions: peptide 1.10^−8 M
T1 construct: expressed in transfected cells; host or cells: HEK293 superTOPflash (human embryonic kidney), transient, pcDNA3.1/hygro
Procedure: (§1) Human embryonic kidney (HEK) cells were used for screening. These cells have a luciferase construct stably transfected into the genome (see FIG. 2A), such that when the frizzled receptor is activated and β-catenin is increased, the luciferase is activated by transcription and light can be measured.
(§2) The peptides were tested by transfecting the frizzled-1 or the frizzled-2 receptor and addition of UM206(S-S) to the cell culture. For testing antagonistic activity, UM206 was added and the natural ligand Wnt3a was added, which is a natural stimulus for the canonical pathway.
Day 2: Transfection 12-well plates • heat Fugene6 and DNA 15 minutes at RT • 2 ml serum-free medium in tube • add 3μl fugene • add 2 μg DNA • incubate 30 minutes at RT • wash with PBS • add 50 μtransfectiemix • add 1 ml antibiotica-free medium
Day 3: Add conditioned medium or UM206
Day 4: Luciferase activity measurements • remove medium • wash with PBS • add 500 μl ⅕ lysisbuffer • shake for 60 minutes • centrifuge in tube • 20 μl lysaat and 50 μl luciferase in new tube for measurement • vortex • measure
To determine the inhibitory constant of UM206-8, HEK293-superTOPflash cells were transfected with either rFzd-1 or -2 and incubated with Wnt3a (10^−9M) in the presence of increasing concentrations of either of the peptides (FIG. 15). For UM206, a biphasic inhibition curve was observed that was best fitted with a two-binding-state model.
(§3) The cell lines were cultured in 75 cm^2 culture flasks (Corning, Schiphol, the Netherlands) in Dulbeco's modified essential medium with L-glutamine (2 mM), 10% fetal calf serum (Invitrogen, Merelbeke, Belgium), and 1% gentamycin (Sigma-Aldrich, Zwijndrecht, The Netherlands). Before starting the experiment, the cell lines were treated with plasmocin 25 μg/ml (Invivogen, Toulose, France) and tested with a mycoalert mycoplasma detection kit (Lonza, Rockland Me., USA). Cells were transiently transfected with Fugene6 (Roche, Indianapolis Ind., USA) with plasmid DNA, pcDNA3.1/hygro (Invitrogen) with frizzled-1/2/4 or Wnts 3a-5a or with pcDNA3.0 (Invitrogen) containing the β-catenin or frizzled-5 sequence. After transfection, the cells were cultured for 24 hours in conditioned medium, collected from the cultured L-cells, L-cells with Wnt3a or 5a (Invitrogen). At the same moment the antagonist was added.

hFzd-5 = biological target: T2, hFzd-5 (Homo sapiens, UniProt Q13467); experiment: Luciferase activity in HEK293 superTOPflash cells overexpressing hFzd-5; assay type: cell-based; conditions: 1.10^−8 M
T2 construct: expressed in transfected cells; host or cells: HEK293 superTOPflash, transient, pcDNA3.0
Procedure: (§4) In FIG. 3, Panel E, the efficacy of UM206 to block the Wnt3a-induced activation of luciferase activity in HEK293 superTOPflash cells transfected with different Fzds is shown.
as §3

mouse Fzd-1 = biological target: T3, mouse Fzd-1 (Mus musculus, UniProt O70421); experiment: Antagonism of Wnt3a activation of mouse Fzd-1 (data not shown); assay type: cell-based
T3 construct: expressed in transfected cells
Text: as §4

frizzled receptor = experiment: Activity on the frizzled receptor (activity assay of Example 1), result in words; assay type: cell-based
Procedure: as §1, §2
Analogues of UM206 were prepared by solid phase peptide synthesis. Each amino acid residue was sequentially replaced by an alanine residue and antagonistic activity of the analogue was tested as described in the activity assay of Example 1. […] Titles indicate which amino acid residue was substituted by an alanine residue.

[1] = tested on: mice with myocardial infarction; experiment: Myocardial infarction model in mice, UM206 by osmotic minipump; assay type: in vivo
Procedure: All animals were subjected to extensive echocardiography studies for the assessment of myocardial infarct size, LV cavity dimensions and ventricular function. Echocardiography examination was performed under 2% isofluorane. Echocardiograms were recorded with Philips Sonos 5500 ultrasound system (Philips, Eindhoven, the Netherlands) using a 20-MHz linear probe.
The animals were anaesthetized with urethane ([…] body weight, i.p., Sigma-Aldrich) followed by intubation and connected to a rodent ventilator (Hugo Sachs, March-Hugstetten, Germany). Body temperature was maintained at 37° C. The mice were then allowed to stabilize prior to hemodynamic measurements. A high-fidelity catheter tip micromanometer (Mikro-tip1.4F, SPR-671; Millar Instruments, Houston TX, USA) was inserted through the right carotid artery into the left ventricular cavity. Ventricular pressure was measured. Maximal positive and negative pressure development (+dP/dt and −dP/dt) and heart rate were determined on a beat-to-beat basis. The heart was then stimulated by an i.v. ramp-infusion of dobutamine (Sigma-Aldrich) using a micro-injection pump (Model 200 Series, KdScientific, Boston, Mass., USA).
One-half of the hearts of the mice was embedded in paraffin and cut in 4 μm sections. The paraffin sections were rehydrated and washed in PBS. One section was stained with AZAN, allowing an accurate determination of the infarct size. To visualize the myofibroblasts in the infarct area, the sections were incubated with an antibody directed against a-smooth muscle actin (Sigma-Aldrich), followed by incubation with the peroxidase-conjugated secondary antibody (Vector laboratories). Nuclei were visualized by hematoxylin. Photos were taken with a Leica (CTR500, 63x/0.85) camera and analyzed with the Quantimet program (QWin/QGo). An examiner blinded to the groups of the animals obtained all measurements. For the experiments with Rhodamine-labeled UM206, frozen sections (4 μm) of mouse kidney and small intestine were used.

[2] = mouse, in vivo
Procedure: UM206 was injected into the femoral artery of Swiss mice (concentration of 10^−9 M). Blood was sampled at different time points in the femoral vein. On the y-axis, the concentration of UM206 in the plasma is shown. This is determined with HPLC and the area under the peak is calculated and shown on the y-axis. All values were corrected for the baseline value.
In order to determine the pharmacokinetic properties of UM206, we injected 15 ng of the compound into the tail vein of mice and monitored the concentration in the blood at different time points.
Male Swiss mice were used (10-12 weeks of age, Charles River, Maastricht, The Netherlands).
Blood samples were collected from the animals for the pharmacokinetics and after 14 to 35 days treatment, to determine the concentration of UM206. Blood was centrifuged and the plasma was treated with 1% TFA.

[3] = five weeks treatment, vs saline

T1 sequence (Q08463 69-641): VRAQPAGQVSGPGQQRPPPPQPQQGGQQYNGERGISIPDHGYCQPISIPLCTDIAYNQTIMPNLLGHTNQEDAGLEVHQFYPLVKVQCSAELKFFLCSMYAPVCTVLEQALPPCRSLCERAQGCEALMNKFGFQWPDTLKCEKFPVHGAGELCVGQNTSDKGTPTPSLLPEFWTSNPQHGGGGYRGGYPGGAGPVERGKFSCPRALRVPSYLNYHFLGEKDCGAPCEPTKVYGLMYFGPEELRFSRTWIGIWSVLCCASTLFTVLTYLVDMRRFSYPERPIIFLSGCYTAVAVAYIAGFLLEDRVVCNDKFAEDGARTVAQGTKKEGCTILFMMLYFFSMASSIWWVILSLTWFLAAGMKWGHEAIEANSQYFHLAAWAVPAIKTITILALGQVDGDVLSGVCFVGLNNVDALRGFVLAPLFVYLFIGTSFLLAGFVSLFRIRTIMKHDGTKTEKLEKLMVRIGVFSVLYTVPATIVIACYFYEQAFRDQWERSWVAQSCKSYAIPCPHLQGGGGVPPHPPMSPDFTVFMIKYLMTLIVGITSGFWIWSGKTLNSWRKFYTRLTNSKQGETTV
T2 sequence (Q13467 27-585): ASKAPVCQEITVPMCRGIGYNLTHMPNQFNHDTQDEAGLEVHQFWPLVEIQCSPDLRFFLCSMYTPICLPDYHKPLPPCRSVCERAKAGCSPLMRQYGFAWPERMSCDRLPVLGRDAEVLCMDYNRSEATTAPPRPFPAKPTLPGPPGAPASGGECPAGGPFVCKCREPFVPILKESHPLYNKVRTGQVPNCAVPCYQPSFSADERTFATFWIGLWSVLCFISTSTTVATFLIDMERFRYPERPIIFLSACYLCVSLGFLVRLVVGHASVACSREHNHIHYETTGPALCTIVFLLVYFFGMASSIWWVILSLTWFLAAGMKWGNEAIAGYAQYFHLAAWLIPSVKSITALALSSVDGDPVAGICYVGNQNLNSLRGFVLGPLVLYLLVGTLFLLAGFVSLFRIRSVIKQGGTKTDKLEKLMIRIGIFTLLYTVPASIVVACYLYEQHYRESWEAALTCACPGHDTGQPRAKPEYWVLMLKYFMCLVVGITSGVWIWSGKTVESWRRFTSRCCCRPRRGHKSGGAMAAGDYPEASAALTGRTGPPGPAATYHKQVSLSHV
T3 sequence (O70421 69-642): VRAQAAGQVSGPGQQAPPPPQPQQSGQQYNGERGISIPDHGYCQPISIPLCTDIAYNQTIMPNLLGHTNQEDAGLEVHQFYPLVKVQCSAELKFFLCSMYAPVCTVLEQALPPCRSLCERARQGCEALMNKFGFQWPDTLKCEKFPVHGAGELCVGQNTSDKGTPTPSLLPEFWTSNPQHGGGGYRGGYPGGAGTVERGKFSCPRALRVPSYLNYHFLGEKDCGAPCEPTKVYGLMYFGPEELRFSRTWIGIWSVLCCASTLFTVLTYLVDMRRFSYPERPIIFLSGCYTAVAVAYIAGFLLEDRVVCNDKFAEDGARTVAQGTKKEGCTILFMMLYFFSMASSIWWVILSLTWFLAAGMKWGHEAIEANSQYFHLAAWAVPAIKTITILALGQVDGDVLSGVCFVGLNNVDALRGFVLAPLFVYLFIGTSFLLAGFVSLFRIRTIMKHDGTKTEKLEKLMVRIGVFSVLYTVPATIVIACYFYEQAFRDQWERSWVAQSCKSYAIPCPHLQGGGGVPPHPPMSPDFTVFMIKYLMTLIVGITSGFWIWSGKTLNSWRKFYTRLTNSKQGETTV

CSCC[C@H](NC(=O)CNC(=O)[C@H](CCC(=O)O)NC(=O)[C@H](CO)NC(=O)[C@@H](NC(=O)[C@H](CCCCN)NC(=O)[C@H](CC(N)=O)NC(=O)[C@H](CS)NC(C)=O)[C@@H](C)O)C(=O)N[C@@H](CC(=O)O)C(=O)NCC(=O)N[C@@H](CS)C(=O)N[C@@H](CCC(=O)O)C(=O)N[C@@H](CC(C)C)C(N)=O [UM206, Ac-Cys-Asn-Lys-Thr-Ser-Glu-Gly-Met-Asp-Gly-Cys-Glu-Leu-NH2] (Ac-CNKTSEGMDGCEL-NH2)
Blocking of Wnt3a-induced luciferase activity, rFzd-1 (frizzled-1 (rFzd-1)): blocked almost completely; also recorded: abolished the induction of luciferase activity almost completely | Effect on Wnt3a-induced luciferase activity, frizzled-5 (hFzd-5): no effect | Antagonizing activation of mouse Fzd-1 by Wnt3a (mouse Fzd-1): fully effective | Activity on the frizzled receptor (in words) (frizzled receptor): very potent antagonist | IC50 (range in words) (frizzled receptor): in the nanomolar range | tangents on the pressure time curve (dP/dt) ([1]; Millar catheter in left ventricle, vs saline): significantly steeper | change of ejection fraction (echocardiography) ([1]; UM206-treated vs saline): doubling | reduction in end diastolic volume of the left ventricle ([1]; UM206-treated vs saline): 40% | AoD ([1]; echocardiography, AVG): 0.18 cm | EDV_L ([1]; echocardiography, AVG): 0.132 cm^3 | EF_L ([1]; echocardiography, AVG): 31.4% | ESV_L ([1]; echocardiography, AVG): 0.090 cm^3 | FS ([1]; echocardiography, AVG): 13.20% | IVS anterior ([1]; echocardiography, AVG): 8.10% | IVSd anterior wall ([1]; echocardiography, AVG): 0.07 cm | IVSd posterior wall ([1]; echocardiography, AVG): 0.09 cm | IVSs anterior wall ([1]; echocardiography, AVG): 0.07 cm | IVSs posterior wall ([1]; echocardiography, AVG): 0.14 cm | LVAs ([1]; echocardiography, AVG): 0.30 cm^2 | LVIDd ([1]; echocardiography, AVG): 0.59 cm | LVIDs ([1]; echocardiography, AVG): 0.52 cm | SV_L ([1]; echocardiography, AVG): 0.041 cm^3 | LVLd ([1]; echocardiography, AVG, first listing (r8)): 0.91 cm | LVLs ([1]; echocardiography, AVG, first listing (r10)): 0.86 cm | LVLd ([1]; echocardiography, AVG, second listing (r12)): 0.95 cm | LVLs ([1]; echocardiography, AVG, second listing (r13)): 0.89 cm | LVAd ([1]; echocardiography, mice post-MI, AVG): 0.38 cm^2 | mortality / survival after MI ([1]; five weeks after MI, 6 microgram/kg/day minipump, saline 35% died): not a single mouse had died; also recorded: completely prevented the mortality | wet lung weight of surviving saline-treated mice higher than in UM206-treated mice ([1]; five weeks post-MI): 40% | blood vessels in the infarct area [1, 3]: increased amount of blood vessels | collagen levels in the infarct area [1, 3]: reduced collagen levels | a-SMA levels in infarcts (qPCR, Western blotting) ([1]; five-week-old infarcts, vs saline): significantly higher | Diastolic pressure ([1]; hemodynamic measurements, AVG): 1.27 mmHg | Left ventricular pressure ([1]; hemodynamic measurements, AVG): 10.14 mmHg | Maximum negative slope ([1]; hemodynamic measurements, AVG): −2542.08 mmHg/sec | Maximum negative slope/pressure ([1]; hemodynamic measurements, AVG): 32.84 s⁻¹ | Maximum positive slope ([1]; hemodynamic measurements, AVG): 5343.84 mmHg/sec | Maximum positive slope/pressure ([1]; hemodynamic measurements, AVG): 69.13 s⁻¹ | Pressure of negative slope ([1]; hemodynamic measurements, AVG): −9.44 mmHg | Pressure of positive slope ([1]; hemodynamic measurements, AVG): 17.78 mmHg | Systolic pressure ([1]; hemodynamic measurements, AVG): 27.93 mmHg | Heart rate ([1]; hemodynamic measurements, mean of 26 animals): 106.32 beats/min | amount of myofibroblasts ([1]; in vivo model of myocardial infarction, in comparison to 4%): 20% | adverse effects of chronic administration ([1]; mouse, in vivo): did not observe any adverse effects | effects on other organs known to contain Fzd-2, including kidney and small intestine ([1]; mouse, in vivo): did not observe any effects | myofibroblast numbers in the infarct area relative to saline-treated mice ([1]; two weeks post-MI): more than four-fold; also recorded: four-fold | infarct area size ([1]; vs saline-treated mice, 2 and 5 weeks after MI): significantly smaller | thickness of the infarct area ([1]; vs saline, both time points): significantly thicker | time until steady state is reached [2]: ~10 h
